In the test the target is histamine H1 receptor (H1R) (Homo sapiens, UniProt P35367). Put plainly: [3H]-thymidine incorporation in CHO-H1R cells. It counts as cell-based.
Sequence of histamine H1 receptor (H1R) (P35367 whole entry): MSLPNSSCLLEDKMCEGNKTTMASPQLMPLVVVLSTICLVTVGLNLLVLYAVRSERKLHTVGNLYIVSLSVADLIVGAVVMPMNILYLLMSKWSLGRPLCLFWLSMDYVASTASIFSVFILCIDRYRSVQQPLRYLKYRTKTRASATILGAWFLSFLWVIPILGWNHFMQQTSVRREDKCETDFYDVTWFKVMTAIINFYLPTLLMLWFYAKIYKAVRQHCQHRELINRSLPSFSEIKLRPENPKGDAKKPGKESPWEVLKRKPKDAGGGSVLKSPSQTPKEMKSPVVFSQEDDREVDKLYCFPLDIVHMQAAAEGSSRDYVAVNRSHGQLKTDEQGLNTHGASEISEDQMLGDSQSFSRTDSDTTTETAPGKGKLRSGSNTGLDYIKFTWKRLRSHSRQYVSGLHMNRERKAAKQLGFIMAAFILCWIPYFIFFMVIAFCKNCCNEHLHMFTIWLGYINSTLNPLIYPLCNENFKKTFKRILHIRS

Broadly, the EC50 is the concentration giving half of the maximal effect. Read a low EC50 as greater potency. `NCCc1cnc(-c2cccc(C(F)(F)F)c2)[nH]1` [H1, 2,3-trifluormetilfenilhistamine] had a concentration for a half-maximal effect (EC50) of 23.1 ± 3.6 µM.

The values are drawn from publication PMC12985397 (Experimental cell research, 2009).
